These results are taken from patent US8921563B2, “1-[(4-hydroxypiperidin-4-yl)methyl]pyridin-2(1H)-one derivatives, preparation methods and uses thereof” (Institue of Pharmacology and Toxicology Academy of Military …, priority 2010, dated 2014).

What is called inhibition is the drop in the measured response relative to a control, in per cent.

Test [1] has as its target T1, 5-HT transport protein (SERT) (Rattus norvegicus, UniProt P31652).
T1 construct: Preparation of Membrane Proteins in Rat Hippocampi; from tissue; host or cells: Wistar rat hippocampus
Nature of the test: Screening: competitive binding test to SERT using [3H]-citalopram. To be noted: [3H]-citalopram 1 nM; for inhibition at 10 µM / inhibition at 0.1 µM: read-out: Inhibition percent (I %), competitive binding to 5-HT transport protein (SERT). The protocol: The homogenate was centrifuged under 1000×g for 10 minutes and the supernatant was then centrifuged under 39000×g for 10 minutes. The precipitate was collected, and resuspended with 10 times volume of Tris-HCl buffer solution (pH 7.4) relative to the original weight, then centrifuged under 39000×g for 10 minutes. The precipitate was washed with the same buffer solution, centrifuged under 39000×g for 10 minutes and the precipitate was suspended with the above buffer solution. After sub-packaged (the whole operation procedures were performed under ice bath), the product was stored at −80° C. The protein concentration was measured by Lowrry method.

Test [2] concerns the target T2, 5-HT1A receptor (Rattus norvegicus, UniProt P19327).
T2 construct: the content of 5-HT1A receptor extracted from rat hippocampi was 5.5 mg/ml; from tissue; host or cells: Wistar rat hippocampus, membrane preparation
T2 sequence (P19327 1-422): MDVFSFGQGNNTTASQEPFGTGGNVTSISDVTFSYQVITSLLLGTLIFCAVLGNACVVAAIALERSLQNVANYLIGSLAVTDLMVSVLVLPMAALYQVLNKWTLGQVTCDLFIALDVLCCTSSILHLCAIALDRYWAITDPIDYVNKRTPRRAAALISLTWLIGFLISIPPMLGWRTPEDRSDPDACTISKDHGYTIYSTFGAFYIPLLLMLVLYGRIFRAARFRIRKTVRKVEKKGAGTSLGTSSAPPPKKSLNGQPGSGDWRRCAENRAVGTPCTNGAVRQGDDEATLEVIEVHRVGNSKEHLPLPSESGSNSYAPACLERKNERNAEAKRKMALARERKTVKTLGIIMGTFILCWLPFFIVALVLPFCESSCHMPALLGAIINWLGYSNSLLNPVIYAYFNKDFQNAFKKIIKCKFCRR
Description: Screening: competitive binding test to 5-HT1A receptor using [3H]-8-OH-DPAT, rat hippocampi membrane protein. Conditions: [3H]-8-OH-DPAT 1.28 nM; for inhibition at 10 µM / inhibition at 0.1 µM: read-out: Inhibition percent (I %), competitive binding to 5-HT1A receptor. The protocol: 1.4.1 Screening of YL Series Compounds
(1) Preparation of Membrane Proteins in Rat Hippocampi
Wister rats, 220-260 g, female and male, were sacrificed by decapitation and hippocampis were rapidly separated, weighed and to which homogenized in 10 times volume of Tris-HCl buffer solution (50 mM Tris-HCl, 5 mM MgCl2,1 mM EDTA, 0.5% (WN) BSA, 1 mM PMSF, 3 μg/ml proteinase inhibitor, 0.1% NaN3, 0.32M sucrose, pH 7.4) at 15,000 rpm for 30 s, total 5 times. The homogenate was centrifuged under 1000×g for 10 minutes and the supernatant was then centrifuged under 39000×g for 10 minutes. The precipitate was collected, and resuspended with 10 times volume of Tris-HCl buffer solution (pH 7.4) relative to the original weight, then centrifuged under 39000×g for 10 minutes. The precipitate was washed with the same buffer solution, centrifuged under 39000×g for 10 minutes and the precipitate was suspended with the above buffer solution. After sub-packaged (the whole operation procedures were performed under ice bath), the product was stored at −80° C. The protein concentration was measured by Lowrry method.
1) In the 5-HT1A receptor binding test, tubes are firstly placed under reaction condition of 25° C.
2) To all of the tubes, the receptor proteins extracted from rat hippocampi in an amount of 100 μg were added in sequence.
4) To the test tubes, 30 μl of the compound in corresponding concentrations (used for screening: 10^−5, 10^−7, 10^−9M) was added in sequence.
6) Tris-HCl buffer solution (50 mM Tris-HCl, 1 mM EDTA, 5 mM MgCl2, 0.1 mM PMSF, 0.1% NaN3, pH 7.4) was supplied to all of the tubes to reach a volume of 300 μl.
7) The reaction was performed at 25° C. for 1 h.
8) Then samples were applied to 49-type glass fibre filter, vacuum suction filtered, then washed three times with 2 ml ice-cold Tris-HCl buffer solution (50 mM Tris-HCl buffer solution, 1 mM EDTA, 5 mM MgCl2, 1 mM PMSF, 0.1% NaN3, 3 μg/ml proteinase inhibitor, pH 7.4). […] The radio-activity was measured by a scintillation counter.

Test [3] concerns mice. Description: Tail suspension test in mice. It is filed as in vivo. To be noted: 30 mg/kg p.o., acute, 1 h before test. The source says:
2.1.2 Tail Suspension Test in Mice
Tail suspension test in mice is an acute behavioral despair model established by Stem, et al. (1985).
1) Experimental device: an experimental frame with spacing boards which dividing the experimental frame into 2 experimental chambers (20×25×30 cm). A clamp is mounted on a through cross rod in the chamber for clamping mice tail so as to suspend the mice.
2) Experimental method: Male Kunming mice weighing 20-25 g. The mice were intragastrically administered with YL-0911 or vehicle (distilled water). After 1 h, wrap adhesive tape around the mouse's tail in position three quarters of the distance from the base of the tail and then suspend the animals by passing the suspension hook through the adhesive tape 5 cm above the table. The duration of immobility in the last 4 min of total 6 min test was recorded.

Test [4] deals with mice. Nature of the test: Hole board test in mice. It is filed as in vivo. Conditions: 10 mg/kg p.o., long-term (23 days). The protocol:
Hole board test, an animal model of anxiety established by Boissie, et al (1962), was performed in mice.
1) Experimental device: a transparent Perspex box (40×40×27 cm) which had four holes (3 cm in diameter, 1.8 cm in depth) in the floor. The distance of each hole center to its closest wall is 10 cm.
2) Experimental method: Male Kunming mice weighing 20-25 g. The mice were intragastrically administered with YL-0911 or vehicle (distilled water). After 23 days, the mice were placed at center of the hole board with their backs facing to the observer. A head dip was scored if the animal's head dipped into the hole at least up to eye level The latency to the first head-dip, the number of head-dips and the time spent in head-dipping were recorded for 5 min.

The test system of test [5] is mice. Nature of the test: Forced swim test in mice. Conditions: 40 mg/kg p.o., acute, 1 h before test. In kind it is in vivo. The protocol: 2.1.1 Forced Swim Test in Mice
Forced swim test in mice is an acute behavioral despair model established by Porsolt, et al.
(1) Experimental device: a glass cylinder (diameter 13 cm, height 24 cm, containing 10 cm of water maintained at 25).
(2) Experimental method: Male Kunming mice weighing 20-25 g. The mice were gently put in the water 1 h after intragastrically drug administration, and then the duration of immobility in the last 4 min of total 6 min test was recorded.

T1 sequence (P31652 whole entry): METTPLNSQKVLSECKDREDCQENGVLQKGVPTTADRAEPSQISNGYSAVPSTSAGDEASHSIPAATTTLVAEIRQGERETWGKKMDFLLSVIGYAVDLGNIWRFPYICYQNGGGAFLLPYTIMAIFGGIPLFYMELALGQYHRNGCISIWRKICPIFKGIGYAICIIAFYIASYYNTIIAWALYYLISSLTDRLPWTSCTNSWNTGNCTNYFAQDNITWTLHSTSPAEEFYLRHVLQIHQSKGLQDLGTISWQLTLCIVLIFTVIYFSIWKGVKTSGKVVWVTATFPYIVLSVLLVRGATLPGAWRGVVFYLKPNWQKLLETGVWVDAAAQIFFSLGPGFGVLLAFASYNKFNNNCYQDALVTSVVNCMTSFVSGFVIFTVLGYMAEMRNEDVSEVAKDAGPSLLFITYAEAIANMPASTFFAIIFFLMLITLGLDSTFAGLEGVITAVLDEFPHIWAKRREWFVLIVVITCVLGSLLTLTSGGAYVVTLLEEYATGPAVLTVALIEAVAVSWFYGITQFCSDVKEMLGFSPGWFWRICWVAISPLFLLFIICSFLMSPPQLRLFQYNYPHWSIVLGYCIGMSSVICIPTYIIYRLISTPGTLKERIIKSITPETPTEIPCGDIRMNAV

As to `O=c1ccccn1CC1(O)CCN(Cc2ccccc2F)CC1` [Compound 2, 1-{[1-(2-fluorobenzyl)-4-hydroxypiperidin-4-yl]-methyl}-pyridin-2(1H)-one], the inhibition at 10 µM in test [1] (compound 10^-5 mol/L) and in test [2] (compound 10^-5 mol/L) was 100% each time. In addition, the inhibition at 0.1 µM in test [1] (compound 10^-7 mol/L) stood at 50%; in test [2] (compound 10^-7 mol/L) it was 58%.

In the case of `O=c1ccccn1CC1(O)CCN(Cc2ccc(F)cc2)CC1` [Compound 3, 1-{[1-(4-fluorobenzyl)-4-hydroxypiperidin-4-yl]-methyl}-pyridin-2(1H)-one], the inhibition at 10 µM in test [2] (compound 10^-5 mol/L) was determined as 100%. Further, the inhibition at 0.1 µM in test [2] (compound 10^-7 mol/L) was determined as 10%.

Take `O=c1ccccn1CC1(O)CCN(Cc2ccc(F)cc2F)CC1` [Compound 4, 1-{[1-(2,4-difluorobenzyl)-4-hydroxypiperidin-4-yl]-methyl}-pyridin-2(1H)-p-one]: the “Inhibition percent (I %), competitive binding to 5-HT transport protein (SERT)” value in test [1] (compound 10^-5 mol/L) worked out at 100%; in test [1] (compound 10^-7 mol/L), 58%. The “Inhibition percent (I %), competitive binding to 5-HT1A receptor” value in test [2] (compound 10^-5 mol/L) turned out to be 100%; in test [2] (compound 10^-7 mol/L) it was 57%.

Take `O=c1ccc(Br)cn1CC1(O)CCN(Cc2ccccc2)CC1` [Compound 5, 5-bromo-1-[(1-benzyl-4-hydroxypiperidin-4-yl)-methyl]-pyridin-2(1H)-one]: the inhibition at 10 µM was 100% in test [1] (compound 10^-5 mol/L) and 94% in test [2] (compound 10^-5 mol/L). The values for the inhibition at 0.1 µM in test [1] (compound 10^-7 mol/L) and in test [2] (compound 10^-7 mol/L) were 77% and 62%, respectively.

In the case of `O=c1ccc(Br)cn1CC1(O)CCN(Cc2ccccc2F)CC1` [Compound 6, 5-bromo-1-{[1-(2-fluorobenzyl)-4-hydroxypiperidin-4-yl]-methyl}-pyridin-2(1H)-one], the inhibition at 10 µM in test [1] (compound 10^-5 mol/L) is 87%; in test [2] (compound 10^-5 mol/L), 100%. Further, the inhibition at 0.1 µM in test [1] (compound 10^-7 mol/L) is 44%; in test [2] (compound 10^-7 mol/L) it was 74%.

As for `O=c1ccc(Br)cn1CC1(O)CCN(Cc2ccc(F)cc2)CC1` [Compound 7, 5-bromo-1-{[1-(4-fluorobenzyl)-4-hydroxypiperidin-4-yl]-methyl}-pyridin-2(M)-one], the “Inhibition percent (I %), competitive binding to 5-HT1A receptor” value in test [2] (compound 10^-5 mol/L) is recorded as 59%; in test [2] (compound 10^-7 mol/L), 2%.

For `O=c1ccc(Br)cn1CC1(O)CCN(Cc2ccc(F)cc2F)CC1` [Compound 8, 5-bromo-1-{[1-(2,4-fluorobenzyl)-4-hydroxypiperidin-4-yl]-methyl}-pyridin-2(M)-one], the “Inhibition percent (I %), competitive binding to 5-HT1A receptor” value in test [2] (compound 10^-5 mol/L) is 42%; in test [2] (compound 10^-7 mol/L), 19%.

For `Cc1ccn(CC2(O)CCN(Cc3ccccc3)CC2)c(=O)c1` [Compound 9, 1-[(1-benzyl-4-hydroxypiperidin-4-yl)-methyl]-4-methylpyridin-2(M)-one], the “Inhibition percent (I %), competitive binding to 5-HT1A receptor” value in test [2] (compound 10^-5 mol/L) turned out to be 100%; in test [2] (compound 10^-7 mol/L), 25%.

For `Cc1ccn(CC2(O)CCN(Cc3ccccc3F)CC2)c(=O)c1` [Compound 10, 1-{[1-(2-fluorobenzyl)-4-hydroxypiperidin-4-yl]-methyl}-4-methylpyridin-2(M)-one], the “Inhibition percent (I %), competitive binding to 5-HT1A receptor” value was found to be 76% in test [2] (compound 10^-5 mol/L) and 37% in test [2] (compound 10^-7 mol/L).

For `Cc1ccn(CC2(O)CCN(Cc3ccc(F)cc3)CC2)c(=O)c1` [Compound 11, 1-{[1-(4-fluorobenzyl)-4-hydroxypiperidin-4-yl]-methyl}-4-methylpyridin-2(M)-one], the “Inhibition percent (I %), competitive binding to 5-HT1A receptor” value in test [2] (compound 10^-5 mol/L) worked out at 57%; in test [2] (compound 10^-7 mol/L), 14%.

On to `Cc1ccn(CC2(O)CCN(Cc3ccc(F)cc3F)CC2)c(=O)c1` [Compound 12, 1-{[1-(2,4-difluorobenzyl)-4-hydroxypiperidin-4-yl]-methyl}-4-methylpyridin-2(M)-one], for which the “Inhibition percent (I %), competitive binding to 5-HT1A receptor” value stood at 61% in test [2] (compound 10^-5 mol/L) and 30% in test [2] (compound 10^-7 mol/L).

For the molecule `CNCCC(Oc1ccc(C(F)(F)F)cc1)c1ccccc1` (centres unmarked) [Fluoxetine, fluoxetine, reference compound], the “Immobility time (s), tail suspension test” value in test [3] was 56.2 ± 41.7 s. The “the latency to the first head-dip” value in test [4] is reported as 42.70 ± 9.43 s. For the same molecule, in test [4] (5 min), the “Number of Head dips” value is given as 9.60 ± 1.49 and the “Time of head dipping” value was determined as 6.31 ± 1.03 s.

Turning to `CN(C)CCCN1c2ccccc2CCc2ccccc21` [Imipramine, reference compound], in test [5], the “Immobility time (s), forced swim test” value was found to be 88.0 ± 58.2 s.
